These results are taken from patent publication US20180015051A1, “MODULATORS OF ALPHA-DICARBONYL DETOXIFICATION AND THEIR USE FOR THE TREATMENT OF DIABETIC PATHOLOGIES” (Buck Institute for Research on Aging, priority 2016, published 2018).

In one series the test system is glod-4 animals. The series can be described thus: LC-MS/MS estimation of a-DC levels (MGO, GO) in worms. The series is classed as in vivo, Caenorhabditis elegans. The note with it: for Levels of GO / Levels of MGO: glod-4, PA; for Levels of GO: LA, or UMP (20 pM each) vs EtOH control; for Levels of MGO: LA, or UMP (20 pM) vs EtOH control. How it is done:
Worms were cultured on NGM agar plates as explained before for lifespan experiments with some modifications: ˜100 animals/60 mm plates were used for each experimental replicate and animals were harvested at day 4 of adulthood with 20 pL M9 buffer in 1.5 mL eppendorf tubes. Worm suspensions were flash-frozen over liquid nitrogen and subsequently homogenized ultrasonically using a Fisher Scientific's 550 Sonic Dismembrator with 80 pL of sodium formate buffer (pH=3) containing 75 pM of 2,3-hexanedione (internal standard, IS). Two 20 s pulses at amplitude setting 4 of the instrument (on ice) were sufficient to completely homogenize worm bodies. To each homogenate tube 20 pL of 100 mg/mL o-phenelynediamine (OPD) solution in sodium formate buffer (pH=3) were added, and the mixture was allowed to react in dark at room temperature for ˜22 h. The long reaction time and the pH are critical parameters in this protocol: first to ensure complete derivatization of a-DCs bound reversibly to protein/glutathione —SHs; and second to prevent in vitro a-DC generation from glycolytic intermediates (DHAP, GAP, etc.) or due to DNA breakdown (Chaplen et al. (1998) Proc. Natl. Acad. Sci. USA, 95: 5533-5538). At the end of the stipulated reaction window, 12 pL of 5 M perchloric acid was added to each tube and incubated on ice for 30 min to ensure complete protein precipitation. Subsequently, the tubes were centrifuged at 10,000 rpm for 10 min, and the supernatant collected and neutralized with 30 pL 4 M NH4OH solution.
Optimization of analyte-specific MRM transitions, such as determination of suitable precursor and product ions and optimal MS parameters for each transition (Q1, precursor→Q3, product) were achieved by isocratic flow injection of the 10 pM solution (final) for each standard- or IS-OPD derivatives. The most intense (Q1→Q3) transition was used as quantifier, whereas the next best transition was used as qualifier for each compound (Table 4). For LC separation, a solvent gradient of 0.1% acetic acid in water (aqueous) - methanol (organic) was used with 0.4 mL/min flow rate, starting with an […] content of 3% for 0.7 min, which was increased to 100% over 6 min and held at 100% for 1.5 min. The LC column was subsequently reconstituted to its initial condition (methanol content of 3%) over the next 0.5 min and re-equilibrated for 3 min.
Derivatized metabolome extracts, as well as synthetic a-DCs were analyzed by scheduled LC-MRM in positive ion mode. To develop the scheduled LC-MRM method, MS/MS data was collected for all transitions across the length of each LC run for a mixture of synthetic GO-, MGO-, 3DG-, and 2,3-hexanedione (IS)-OPD derivatives (1 pL injection of 1 pM final concentration). Source conditions were as follows: curtain gas (CUR) 20, nebulizer gas (GS1) 60, auxiliary gas (GS2) 50, ionspray voltage (IS) 4500 V, and source temperature (TEM) 450° C. This step was undertaken to ascertain the LC retention times (RT) for the OPD derivatives. Several such sets were acquired to compute analyte-specific variability in RTs. Next, the MS was switched to operate in scheduled MRM mode, whereby the mass spectrometer acquired data for specific MRM transitions ±45 s around the computed RT for the analyte (Table 4). Relative quantification of GO, MGO, and 3DG were based on integration of corresponding OPD derivative-specific quantifier peaks obtained from scheduled LC-MRM runs (peak areas) and adjusted to the number of animals. To account for OPD derivatization efficiencies in individual tubes, sample-to-sample variability in MS response, and differential sample dilutions (both for synthetic a-DCs as well as a-DCs in worm homogenates), the peak areas were normalized to the quantifier peak area for IS-OPD for each sample.

Series [1] concerns 50B11 cells (immortalized rat DRG neuronal cells). The series can be described thus: MGO-mediated neurotoxicity in differentiated 50B11 cells (DIC imaging, neurite length, soma size). The series is classed as cell-based. The note with it: 20-24 h. As for the experimental part:
50B11 cells (immortalized rat DRG neuronal cells) maintain self-replication capability over many cell divisions (>300). The results described in this article were obtained with cells between 100 and 400 passages. Cells were grown in antibiotic treated complete Neurobasal media containing glucose, L-glutamine, Fetal Bovine Serum (FBS), B-27 supplement, and nerve growth factor (NGF) (100 ng/ml). Differentiation and axonal elongation was induced by addition of forskolin (75 pM) into the culture medium. […] Methylglyoxal was administered at a final concentration of 250 pM for 20-24 h post-differentiation of the cells. Podocarpic acid was added at a final concentration of 250 pM and incubated for the same period with or without methylglyoxal. Ethanol was used as a vehicle control. […] Neurite outgrowth was quantified by manually measuring the length of a projection from the edge of the cell body; a neurite was defined as a thin projection longer than the diameter of the associated cell body. Area of soma or cell body was measured excluding the neurite projections. Images were processed using Image Analyst MKII software (www.imageanalyst.net/) and quantification was done using Image J software (//imagei.nih.gov/ij/). 75-100 cells selected randomly were considered for quantification under each experimental condition.

Another series deals with C. elegans. The experiment in a line: Touch assay (touch index, gentle touch). How it is done:
For feeding RNAi bacteria, synchronized L1 larvae were transferred to NGM plates containing 1 mM of isopropyl P-D-1- thiogalactopyranoside/IPTG (referred to as RNAi plates) seeded with 20× concentrated HT1115 bacteria (cultured overnight at 20° C. at 220 rpm), carrying desired plasmid for RNAi of a specific gene or bacteria carrying empty vector pL4440 as control and allowed to grow on plates for 48 h. For drug assays, synchronized L4 larvae were transferred to either 60 mm NGM plates (with or without IPTG), freshly seeded with 5×E. coli OP50-1 or 20× HT1115 RNAi bacteria. Before seeding, the desired drug (or vehicle control) was mixed with the bacteria. Final drug concentrations were calculated considering the total volume of media and bacteria seeded on the NGM plates.
Briefly, each animal was touched alternately in the head region and in the tail with an eyelash. Typically, an omega turn or diversion in head direction resulting from anterior touch was counted as a positive response. Posterior touch response (not counted towards positive response) functioned towards resetting of the response to anterior touch. Touch index (TI) scores were generated by dividing the total number of positive responses over the […] per animal.
Synchronized glod-4 L1 animals were cultured on NGM agar plates seeded with E. coli OP50-1 until L4. […] Post-transfer into wells, animals were fed OP50-1 bacteria ad libitum while incubating at 20° C. on a rocker for 12 h. DMSO was used as control. Post-incubation with drug or DMSO, animals were transferred from wells onto NGM agar plates seeded with OP50-1 bacteria. Touch assay was performed on individual animal and touch index (TI) was calculated for each compound from the library as mentioned earlier.

Regarding `O=C(O)CCCCC1CCSS1` (centres unmarked) [LA, a-lipoic acid], in the series with glod-4 animals, the “Levels of GO” value is “almost wild-type-like levels” and the “Levels of MGO” value is reported as “almost wild-type-like levels”.
Take `CC(=O)C=O` [MGO, methylglyoxal]: in series [1] (MGO 250 pM), the “Neurite length (neurite outgrowth)” value is recorded as “significant retraction of neurite outgrowths” and the “Soma size (cell bodies)” value is “shrinkage in cell bodies”. Besides, in the series on C. elegans (N2 animals, young adult stage, 7 mM MGO vs water), the “Touch sensitivity (touch index)” value is “hyperesthesia”.
On to `C[C@]1(C(=O)O)CCC[C@]2(C)c3cc(O)ccc3CC[C@@H]12` [PA, podocarpic acid], for which, in the series on glod-4 animals, the “Levels of GO” value is on record as “almost wild-type-like levels” and the “Levels of MGO” value is recorded as “almost wild-type-like levels”. Further, the “Levels of MGO under trpa-1 knockdown” value with glod-4 animals (glod-4 on trpa-1 RNAi, PA vs EtOH control) was “no effect”. The “MGO-induced neurotoxic phenotypes (cell body size, neurite outgrowth)” value in series [1] (PA and MGO each at 250 pM) is given as “ameliorate these MGO-induced neurotoxic phenotypes”. Further, the “Touch sensitivity (touch index), lack of touch sensitivity” value with C. elegans (glod-4, day 8 of adulthood, PA (20 pM) vs EtOH control) is given as “lack of touch sensitivity to wild-type levels”. Besides, in the series with C. elegans (glod-4, young adult stage, PA (20 pM) vs EtOH control), the “Touch sensitivity (touch index), hyperesthesia” value was “revert the hyperesthesia”.
